Where a name gives a salt, the structure may show the parent alone.
Tests used:
[1] = biological target: Cyclooxygenase; assay: Enzyme assay, inhibition of cyclooxygenase (method closely based on Borgeat et al); assay type: biochemical
[2] = tested on: Carrageenin Oedema; assay: Carrageenin-induced hind paw oedema; assay type: in vivo; details: Rattus norvegicus, po; female rats, sub-plantar 2% carrageenin, swelling measured 1-4 hours after injection
Method: (§1) The compound of Example 1 was subjected to the following tests. Results are given in Table II as ED50 mg/kg upon oral administration. Results are also provided by way of comparison for the compound 3-methylamino-1-(3-trifluoromethylphenyl)-2-pyrazoline (Compound A) which is disclosed in European Specification 55 418.
Oedema was induced by the sub-plantar injection of 2% carrageenin (0.1 ml) in the hind paws of female rats (100-i30g). Swelling was measured 1-4 hours following carrageenin injection using a micrometer gauge. Drugs in aqueous solution were administered orally to groups of five rats at the time of carrageenin injection. Mean swelling was expressed as a percentage of control values obtained from similar groups of animals receiving vehicle alone.

[3] = tested on: Prostaglandin E2 concentrations in sponge exudates; assay: Prostaglandin synthesis in carrageenin sponge inflammatory exudate; assay type: in vivo; details: Rattus norvegicus, po; male rats, sponges impregnated with 2% carrageenin, exudates collected 24 hours after implantation; read-out: ED50 (mg/kg p.o.) Prostaglandin Production (rat)
Method: as §1
(§2) Inflammatory exudates were collected 24 hours after the subcutaneous implantation in male rats (180-220g) of sterile polyester sponges impregnated with 2% carrageenin. Prostaglandin E2 concentrations in sponge exudates were measured by bioassay and total leucocyte numbers were estimated using counting chambers and phase contrast microscopy. Drugs were administered orally in aqueous solution to groups of five animals at the time of sponge implantation, 5-8 hours later and 3 hours before sponge removal. Results are expressed as a percentage of control values obtained from similar groups of animals receiving vehicle alone. ED50 values were calculated for active compounds. The full dose-response data for lead compounds were subjected to regression analysis and ED50 values with 95% confidence limits have been obtained.

[4] = tested on: PBQ Writhing; assay: Phenylbenzoquinone (PBQ) induced writhing (pain); assay type: in vivo; details: Mus musculus, po; p.o. 1 hour before PBQ 2.5 mg/kg i.p.; female mice
Method: as §1
Writhing was induced in groups of 5 female mice (20-25g) following the intraperitoneal injection of phenylbenzoquinone (PBQ; 2.5 mg/kg). Anti-nociceptive effects of drugs were assessed by observing the reduction in writhing responses 10-12½ min after PBQ injection. Drugs were administered orally in aqueous solution 1 hour before PBQ injection and drug effects were expressed as a percentage of control values obtained from animals receiving vehicle alone.

[5] = tested on: total leucocyte numbers; assay: Leucocyte accumulation in carrageenin sponge inflammatory exudate; assay type: in vivo; details: Rattus norvegicus, po, male rats, sponges impregnated with 2% carrageenin, exudates collected 24 hours after implantation, read-out: ED50 (mg/kg p.o.) Leucocyte Migration (rat)
Method: as §1, §2

[6] = Toxicity: ulcerogenicity; assay type: in vivo; details: rat, doses in the range 50-100 mg/kg

CNC1=NN(c2cccc(SC)c2)CC1 [Example 3, 3-methylamino-1-(3-methylthiophenyl)-2-pyrazoline hydrobromide]
IC50 [1]: 10 µM

CNC1=NN(c2cccc(C(F)(F)F)c2)CC1 [Compound A, 3-methylamino-1-(3-trifluoromethylphenyl)-2-pyrazoline, reference compound]
ED50 [2]: 26 mg/kg | ED50 [3]: 20 mg/kg | ED50 [4]: 20 mg/kg | ED50 [5]: 20 mg/kg

C#CCNC1=NN(c2cccc(SC)c2)CC1 [Example 7, 1-(3-Methylthiophenyl)-3-(2-propynylamino)-2-pyrazoline hydrochloride]
IC50 [1]: > 1 µM

CSc1cccc(N2CCC(N)=N2)c1 [Example 1, 3-amino-1-(3-methylthiophenyl)-2-pyrazoline]
ulcerogenic [6]: not to be ulcerogenic | ED50 [2]: 20 mg/kg | ED50 [3]: 14 mg/kg | ED50 [4]: 15 mg/kg | IC50 [1]: 4.7 µM | ED50 [5]: 6.5 mg/kg

Reference: patent publication EP0119449A1, “Aminopyrazoline derivatives” (THE WELLCOME FOUNDATION LIMITED, priority 1983, dated 1984)
